Measurements reported in patent US12692262B2, “Substituted ureas as orexin receptor agonists” (Merck Sharp & Dohme LLC, priority 2020, dated 2026).

Target: T1, human OX2R (Homo sapiens, UniProt O43614)
T1 construct: expressed in transfected cells; host or cells: CHO (Chinese hamster ovary) cells grown under G418 selection
T1 sequence (O43614 1-444): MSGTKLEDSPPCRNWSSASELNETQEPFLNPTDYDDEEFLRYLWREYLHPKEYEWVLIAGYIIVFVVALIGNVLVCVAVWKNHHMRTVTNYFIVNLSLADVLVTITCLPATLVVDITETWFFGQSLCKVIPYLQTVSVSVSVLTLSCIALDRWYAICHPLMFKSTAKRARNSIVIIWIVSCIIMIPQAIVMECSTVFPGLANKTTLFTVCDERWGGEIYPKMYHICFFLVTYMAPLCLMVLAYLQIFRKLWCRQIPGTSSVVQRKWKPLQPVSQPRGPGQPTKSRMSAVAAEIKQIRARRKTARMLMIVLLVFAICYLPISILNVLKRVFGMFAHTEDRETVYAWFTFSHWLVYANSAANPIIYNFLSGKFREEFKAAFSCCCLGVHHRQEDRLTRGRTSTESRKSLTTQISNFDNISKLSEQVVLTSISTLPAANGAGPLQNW
Assay: IPOne (IP-1 accumulation) assay in CHO cells expressing human OX2R
Format: cell-based
Conditions: for EC50: CHO cells expressing human OX2R, IP-One assay, 2 h incubation, four parameter logistic fit, read-out: OX2R Potency, EC50; for % of maximum agonist effect (relative to Orexin A): percent effect vs mean max effect of a reference compound at 1 uM (100% activity vs Orexin A), human OX2R
Method in brief: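 CHO cells stably expressing human OX2R, grown in Iscove's modified DMEM with 10% FBS; agonist-driven IP-1 accumulation via the Gαq pathway measured by HTRF (D2/AB-cryptate detection after lysis). EC50 taken as the inflection point of a four-parameter logistic fit.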

SMILES	EC50	% of maximum agonist effect (relative to Orexin A)
CCN(C(=O)NC(C1CC(F)(F)CCN1C)C(F)(F)F)[C@H](C)c1cccc(-c2cc(OC)n3nccc3c2)c1 (stereo partly drawn) [Example 2-53, 3-(1-(4,4-difluoro-1-methylpiperidin-2-yl)-2,2,2-trifluoroethyl)-1-ethyl-1-((R)-1-(3-(7-methoxypyrazolo[1,5-a]pyridin-5-yl)phenyl)ethyl)urea]	1.5 nM	101.6%
CCN(C(=O)NC(CCC(F)(F)F)C(C)(F)F)[C@H](C)c1cccc(-c2cn3ccnc3c(OC)n2)c1 (stereo partly drawn) [Example 2-55, 1-ethyl-1-((R)-1-(3-(8-methoxyimidazo[1,2-a]pyrazin-6-yl)phenyl)ethyl)-3-(2,2,6,6,6-pentafluorohexan-3-yl)urea]	129 nM	99.4%
CCN(C(=O)N[C@@H](CCC(F)(F)F)C(F)(F)F)[C@@H](c1cc(-c2cc(OC)c3ncn(C)c3c2)c(OC)cn1)C(F)(F)F [Example 9-7, 1-ethyl-3-((S)-1,1,1,5,5,5-hexafluoropentan-2-yl)-1-((S)-2,2,2-trifluoro-1-(5-methoxy-4-(4-methoxy-1-methyl-1H-benzo[d]imidazol-6-yl)pyridin-2-yl)ethyl)urea]	29.8 nM	100.4%
CCN(C(=O)NC(C1CCCOC1)C(F)(F)F)[C@@H](c1cc(-c2cn3cc(C)nc3c(OC)n2)c(OC)cn1)C(F)(F)F (stereo partly drawn) [Example 2-47, 1-ethyl-1-((S)-2,2,2-trifluoro-1-(5-methoxy-4-(8-methoxy-2-methylimidazo[1,2-a]pyrazin-6-yl)pyridin-2-yl)ethyl)-3-(2,2,2-trifluoro-1-(tetrahydro-2H-pyran-3-yl)ethyl)urea]	16.7 nM	100.7%
CCN(C(=O)N[C@@H]1CC[C@H](C(F)(F)F)C1)[C@H](C)c1cccc(-c2cn3ccnc3c(OC)n2)c1 [Example 1-3, 1-ethyl-1-((R)-1-(3-(8-methoxyimidazo[1,2-a]pyrazin-6-yl)phenyl)ethyl)-3-((1R,3S)-3-(trifluoromethyl)cyclopentyl)urea]	6.5 nM	99.9%
CCN(C(=O)N[C@H]1C[C@@]1(C)C(F)(F)F)[C@@H](c1cc(-c2cn3ccnc3c(OC)n2)c(OC)cn1)C(F)(F)F [Example 2-39, 1-ethyl-3-((1S,2R)-2-methyl-2-(trifluoromethyl)cyclopropyl)-1-((S)-2,2,2-trifluoro-1-(5-methoxy-4-(8-methoxyimidazo[1,2-a]pyrazin-6-yl)pyridin-2-yl)ethyl)urea]	5.8 nM	99.3%
CCC(/C=C/C(F)(F)F)NC(=O)N(CC)[C@@H](c1cc(-c2cn3cc(C)nc3c(OC)n2)c(OC)cn1)C(F)(F)F (stereo partly drawn) [Example 6-5, 1-ethyl-1-((S)-2,2,2-trifluoro-1-(5-methoxy-4-(8-methoxy-2-methylimidazo[1,2-a]pyrazin-6-yl)pyridin-2-yl)ethyl)-3-((E)-6,6,6-trifluorohex-4-en-3-yl)urea]	18.9 nM	100.0%
CCN(C(=O)N[C@@H](CCC(F)(F)F)C(F)(F)F)C(c1cc(-c2cn3ccnc3c(OC)n2)c(OC)c(C)n1)C(F)(F)F (stereo partly drawn) [Example 10-6, 1-ethyl-3-((S)-1,1,1,5,5,5-hexafluoropentan-2-yl)-1-(2,2,2-trifluoro-1-(5-methoxy-4-(8-methoxyimidazo[1,2-a]pyrazin-6-yl)-6-methylpyridin-2-yl)ethyl)urea]	9.2 nM	98.9%
CCN(C(=O)NC(CC1CCCO1)C(F)(F)F)[C@@H](c1cc(-c2cn3cc(C)nc3c(OC)n2)c(OC)cn1)C(F)(F)F (stereo partly drawn) [Example 2-46, 1-ethyl-1-((S)-2,2,2-trifluoro-1-(5-methoxy-4-(8-methoxy-2-methylimidazo[1,2-a]pyrazin-6-yl)pyridin-2-yl)ethyl)-3-(1,1,1-trifluoro-3-(tetrahydrofuran-2-yl)propan-2-yl)urea]	11.7 nM	100.9%
C=Cc1ccc([C@@H](C)N(CC)C(=O)N[C@H](CC)CCC(F)(F)F)cc1-c1ccc2nccn2c1 [Example 19, 1-ethyl-1-((R)-1-(3-(imidazo[1,2-a]pyridin-6-yl)-4-vinylphenyl)ethyl)-3-((R)-6,6,6-trifluorohexan-3-yl)urea]	23.2 nM	94.9%
CCN(C(=O)N[C@@H](CCC(F)(F)F)C(F)(F)F)[C@H](C)c1cccc(-c2cc(OC)c3ncc(Cl)n3c2Cl)c1 [Example 8-14, 1-((R)-1-(3-(3,5-dichloro-8-methoxyimidazo[1,2-a]pyridin-6-yl)phenyl)ethyl)-1-ethyl-3-((S)-1,1,1,5,5,5-hexafluoropentan-2-yl)urea]	109 nM	100.1%
CC[C@H](CCC(F)(F)F)NC(=O)N(CC(F)F)C(c1cc(-c2cn3ncnc3c(OC)n2)c(OC)cn1)C(F)(F)F (stereo partly drawn) [Example 2-20, 1-(2,2-difluoroethyl)-1-(2,2,2-trifluoro-1-(5-methoxy-4-(8-methoxy-[1,2,4]triazolo[1,5-a]pyrazin-6-yl)pyridin-2-yl)ethyl)-3-((R)-6,6,6-trifluorohexan-3-yl)urea]	341 nM	99.7%
CCN(C(=O)N[C@@H](CCC(F)(F)F)C(F)(F)F)C(C)c1cnnc(-c2cn3ccnc3c(OC)n2)c1 (stereo partly drawn) [Example 2-64, 1-ethyl-3-((S)-1,1,1,5,5,5-hexafluoropentan-2-yl)-1-(1-(6-(8-methoxyimidazo[1,2-a]pyrazin-6-yl)pyridazin-4-yl)ethyl)urea]	2870 nM	81.2%
COc1cnc([C@H](N(C(=O)N[C@@H](CCC(F)(F)F)C(F)(F)F)C2CC2)C(F)(F)F)cc1-c1cn2cc(C)nc2c(OC)n1 [Example 2-19, 1-cyclopropyl-3-((S)-1,1,1,5,5,5-hexafluoropentan-2-yl)-1-(2,2,2-trifluoro-1-(5-methoxy-4-(8-methoxy-2-methylimidazo[1,2-a]pyrazin-6-yl)pyridin-2-yl)ethyl)urea]	5.7 nM	102.0%
CCN(C(=O)NC(C)C(C)(F)F)[C@@H](c1cc(-c2cn3ccnc3c(OC)n2)c(OC)cn1)C(F)(F)F (stereo partly drawn) [Example 2-40, 3-(3,3-difluorobutan-2-yl)-1-ethyl-1-((S)-2,2,2-trifluoro-1-(5-methoxy-4-(8-methoxyimidazo[1,2-a]pyrazin-6-yl)pyridin-2-yl)ethyl)urea]	15.8 nM	99.3%
CCN(C(=O)NC(COC(=O)N(C)C)C(F)(F)F)[C@H](C)c1cccc(-c2cn3ccnc3c(OC)n2)c1 (single isomer, unassigned) [Example 23]	125 nM	95.3%
CC[C@H](CCC(F)(F)F)NC(=O)N(CC)[C@H](C)c1cccc(-c2cc(Cl)n3nccc3c2)c1 [Example 7-5, 1-((R)-1-(3-(7-chloropyrazolo[1,5-a]pyridin-5-yl)phenyl)ethyl)-1-ethyl-3-((R)-6,6,6-trifluorohexan-3-yl)urea]	851 nM	93.7%
CCN(C(=O)N[C@@H](CCC(F)(F)F)C(F)(F)F)[C@H](C)c1cccc(-c2cc(OC)c3nc(Cl)cn3c2)c1 [Example 8-10, 1-((R)-1-(3-(2-chloro-8-methoxyimidazo[1,2-a]pyridin-6-yl)phenyl)ethyl)-1-ethyl-3-((S)-1,1,1,5,5,5-hexafluoropentan-2-yl)urea]	1.5 nM	99.6%
CCN(C(=O)N[C@]1(C)C[C@H]1C(F)(F)F)[C@@H](c1cc(-c2cn3ccnc3c(OC)n2)c(OC)cn1)C(F)(F)F [Example 2-31, 1-ethyl-3-((1R,2R)-1-methyl-2-(trifluoromethyl)cyclopropyl)-1-((S)-2,2,2-trifluoro-1-(5-methoxy-4-(8-methoxyimidazo[1,2-a]pyrazin-6-yl)pyridin-2-yl)ethyl)urea]	35.1 nM	99.0%
CCC(CCC(F)(F)F)NC(=O)N(CC)[C@H](C)c1cccc(-c2cn3ccnc3cc2OC)c1 (stereo partly drawn) [Example 7-2, 1-ethyl-1-((R)-1-(3-(7-methoxyimidazo[1,2-a]pyridin-6-yl)phenyl)ethyl)-3-(6,6,6-trifluorohexan-3-yl)urea]	396 nM	100.4%
CCN(C(=O)NC(CO)C(F)(F)F)[C@H](C)c1cccc(-c2cn3ccnc3c(OC)n2)c1 (single isomer, unassigned) [Example 21]	50.9 nM	96.3%
CCN(C(=O)N[C@@H](CCC(F)(F)F)C(F)(F)F)[C@H](C)c1cccc(-c2cc(OC)c3nc(O)cn3c2)c1 [Example 26, 1-ethyl-3-((S)-1,1,1,5,5,5-hexafluoropentan-2-yl)-1-((R)-1-(3-(2-hydroxy-8-methoxyimidazo[1,2-a]pyridin-6-yl)phenyl)ethyl)urea]	144 nM	89.1%
